Source: US20240108006A1, “PESTICIDALLY ACTIVE HETEROAROMATIC COMPOUNDS” (SYNGENTA CROP PROTECTION AG, priority 2021, published 2024)

Key:
Assay type in all cases: in vivo
[1] = test system: Euschistus heros; experiment: Example B3: Euschistus heros (neotropical brown stink bug), soybean leaves, N2 nymphs; settings: 120 h, application rate of 200 ppm, 5 days after infestation, read-out: control in at least one of the two categories (mortality or growth inhibition)
Protocol: Example B3: Euschistus heros (Neotropical Brown Stink Bug)
Soybean leaves on agar in 24-well microtiter plates were sprayed with aqueous test solutions prepared from 10,000 ppm DMSO stock solutions. After drying the leaves were infested with N2 nymphs. The samples were assessed for mortality and growth inhibition in comparison to untreated samples 5 days after infestation.
(§1) The following compounds gave an effect of at least 80% control in at least one of the two categories (mortality or growth inhibition) at an application rate of 200 ppm: […]

[2] = test system: Myzus persicae; experiment: Example B7: Myzus persicae (green peach aphid), intrinsic activity, sucrose solution 24-well; settings: 120 h, application rate of 12.5 ppm, 5 days after infestation, read-out: control (mortality)
From the text: Example B7: Myzus persicae (Green Peach Aphid). Intrinsic Activity
Test compounds prepared from 10,000 ppm DMSO stock solutions were applied by pipette into 24-well microtiter plates and mixed with sucrose solution. The plates were closed with a stretched Parafilm. A plastic stencil with 24 holes was placed onto the plate and infested pea seedlings were placed directly on the Parafilm. The infested plate was closed with a gel blotting paper and another plastic stencil and then turned upside down. The samples were assessed for mortality 5 days after infestation.
The following compounds gave an effect of at least 80% control at an application rate of 12.5 ppm: […]

[3] = test system: Spodoptera littoralis; experiment: Example B9: Spodoptera littoralis (Egyptian cotton leaf worm), cotton leaf discs, L1 larvae; settings: foliar, 72 h, application rate of 200 ppm, 3 days after infestation, read-out: control in at least one of the three categories (mortality, anti-feedant effect, or growth inhibition)
Summary of the method: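 Cotton leaf discs on agar sprayed with aqueous test solutions from 10,000 ppm DMSO stocks, dried, then infested with five L1 larvae. Mortality, anti-feeding and growth inhibition scored against untreated samples 3 days after infestation.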

[4] = test system: Chilo suppressalis; experiment: Example B1: Chilo suppressalis (striped rice stemborer), artificial diet, L2 larvae; settings: 144 h, application rate of 200 ppm, 6 days after infestation, read-out: control in at least one of the three categories (mortality, anti-feedant effect, or growth inhibition)
Summary of the method: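 Artificial diet was treated with aqueous test solutions made from 10,000 ppm DMSO stocks, dried, then infested with L2 larvae (6-8 per well). Mortality, anti-feeding effect and growth inhibition were scored against untreated samples 6 days after infestation, and control was counted when any category exceeded untreated.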

[5] = test system: Diabrotica balteata; experiment: Example B2: Diabrotica balteata (corn root worm), maize sprouts, L2 larvae; settings: 96 h, application rate of 200 ppm, 4 days after infestation, read-out: control in at least one of the two categories (mortality or growth inhibition)
Protocol: Example B2: Diabrotica balteata (Corn Root Worm)
Maize sprouts placed onto an agar layer in 24-well microtiter plates were treated with aqueous test solutions prepared from 10,000 ppm DMSO stock solutions by spraying. After drying, the plates were infested with L2 larvae (6 to 10 per well). The samples were assessed for mortality and growth inhibition in comparison to untreated samples 4 days after infestation.
as §1

[6] = test system: Myzus persicae; experiment: Example B5: Myzus persicae (green peach aphid), feeding/contact activity; settings: 144 h, application rate of 200 ppm, 6 days after infestation
Protocol: Example B5: Myzus persicae (Green Peach Aphid):Feeding/Contact Activity
Sunflower leaf discs were placed onto agar in a 24-well microtiter plate and sprayed with aqueous test solutions prepared from 10,000 ppm DMSO stock solutions. After drying, the leaf discs were infested with an aphid population of mixed ages. The samples were assessed for mortality 6 days after infestation.

[7] = test system: Plutella xylostella; experiment: Example B8: Plutella xylostella (diamond back moth), artificial diet 24-well, eggs; settings: 192 h, application rate of 200 ppm, 8 days after infestation, read-out: effect in at least one of the two categories (mortality or growth inhibition)
Summary of the method: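 Artificial diet in 24-well plates treated with aqueous dilutions of DMSO stock (10,000 ppm stock) and dried, then infested with Plutella eggs. Mortality and growth inhibition scored versus untreated samples 8 days after infestation.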

C[C@H](NC(=O)Nc1ccc(C(F)(F)F)nc1Cl)c1ncnn1-c1ncccn1 [Example P18, 1-[2-chloro-6-(trifluoromethyl)-3-pyridyl]-3-[(1S)-1-(2-pyrimidin-2-yl-1,2,4-triazol-3-yl)ethyl]urea]
≥ 80%: percent control (mortality or growth inhibition) at 200 ppm [1] | mortality at 12.5 ppm [2] | percent control (mortality, anti-feedant effect or growth inhibition) at 200 ppm [3]

C[C@H](NC(=O)Nc1ccc(Br)cc1OC(F)F)c1ncnn1-c1ncccn1 [Example P58, 1-[4-bromo-2-(difluoromethoxy)phenyl]-3-[(1S)-1-(2-pyrimidin-2-yl-1,2,4-triazol-3-yl)ethyl]urea]
≥ 80%: percent control (mortality, anti-feedant effect or growth inhibition) at 200 ppm [4] | percent control (mortality or growth inhibition) at 200 ppm [5] | mortality at 200 ppm [6] | mortality at 12.5 ppm [2] | percent effect (mortality or growth inhibition) at 200 ppm [7] | percent control (mortality, anti-feedant effect or growth inhibition) at 200 ppm [3]

C[C@@H](c1ncnn1-c1ncccn1)N(C)C(=O)N(C)c1cc(OC(F)(F)C(F)F)c(Cl)cc1Cl [Example P132, 1-[2,4-dichloro-5-(1,1,2,2-tetrafluoroethoxy)phenyl]-1,3-dimethyl-3-[(1S)-1-(2-pyrimidin-2-yl-1,2,4-triazol-3-yl)ethyl]urea]
≥ 80%: percent control (mortality, anti-feedant effect or growth inhibition) at 200 ppm [4] | percent control (mortality or growth inhibition) at 200 ppm [5] | mortality at 200 ppm [6] | mortality at 12.5 ppm [2] | percent effect (mortality or growth inhibition) at 200 ppm [7] | percent control (mortality, anti-feedant effect or growth inhibition) at 200 ppm [3]

C[C@@H](c1ncnn1-c1ncccn1)N(C)C(=O)Nc1cc(OC(F)(F)C(F)F)c(Cl)cc1Cl [Example P133, 3-[2,4-dichloro-5-(1,1,2,2-tetrafluoroethoxy)phenyl]-1-methyl-1-[(1S)-1-(2-pyrimidin-2-yl-1,2,4-triazol-3-yl)ethyl]urea]
≥ 80%: percent control (mortality, anti-feedant effect or growth inhibition) at 200 ppm [4] | percent control (mortality or growth inhibition) at 200 ppm [5] | mortality at 200 ppm [6] | mortality at 12.5 ppm [2] | percent effect (mortality or growth inhibition) at 200 ppm [7] | percent control (mortality, anti-feedant effect or growth inhibition) at 200 ppm [3]

C[C@H](NC(=O)Nc1cc(OC(F)(F)C(F)F)c(Cl)cc1Cl)c1nccnc1-c1ncccn1 [Example P135, 1-[2,4-dichloro-5-(1,1,2,2-tetrafluoroethoxy)phenyl]-3-[(1S)-1-(3-pyrimidin-2-ylpyrazin-2-yl)ethyl]urea]
≥ 80%: percent control (mortality, anti-feedant effect or growth inhibition) at 200 ppm [4] | percent control (mortality or growth inhibition) at 200 ppm [5] | mortality at 200 ppm [6] | mortality at 12.5 ppm [2] | percent effect (mortality or growth inhibition) at 200 ppm [7] | percent control (mortality, anti-feedant effect or growth inhibition) at 200 ppm [3]

C[C@@H](c1ncnn1-c1ncccn1)N1COCN(c2cc(OC(F)(F)C(F)F)c(Cl)cc2Cl)C1=O [Example P137, 3-[2,4-dichloro-5-(1,1,2,2-tetrafluoroethoxy)phenyl]-5-[(1S)-1-(2-pyrimidin-2-yl-1,2,4-triazol-3-yl)ethyl]-1,3,5-oxadiazinan-4-one]
≥ 80%: percent control (mortality, anti-feedant effect or growth inhibition) at 200 ppm [4] | percent control (mortality or growth inhibition) at 200 ppm [5] | mortality at 200 ppm [6] | mortality at 12.5 ppm [2] | percent effect (mortality or growth inhibition) at 200 ppm [7] | percent control (mortality, anti-feedant effect or growth inhibition) at 200 ppm [3]

COc1ccc(COc2cc(NC(=O)N[C@@H](C)c3ncnn3-c3ncccn3)c(Cl)cc2Cl)cc1F [Example P168, 1-[2,4-dichloro-5-[(3-fluoro-4-methoxy-phenyl)methoxy]phenyl]-3-[(1S)-1-(2-pyrimidin-2-yl-1,2,4-triazol-3-yl)ethyl]urea]
≥ 80%: mortality at 200 ppm [6]

C[C@H](NC(=O)N(C)c1cc(OC(F)(F)C(F)F)c(Cl)cc1Cl)c1ncnn1-c1ncccn1 [Example P176, 1-[2,4-dichloro-5-(1,1,2,2-tetrafluoroethoxy)phenyl]-1-methyl-3-[(1S)-1-(2-pyrimidin-2-yl-1,2,4-triazol-3-yl)ethyl]urea]
≥ 80%: percent control (mortality, anti-feedant effect or growth inhibition) at 200 ppm [4] | percent control (mortality or growth inhibition) at 200 ppm [5] | mortality at 200 ppm [6] | mortality at 12.5 ppm [2] | percent effect (mortality or growth inhibition) at 200 ppm [7] | percent control (mortality, anti-feedant effect or growth inhibition) at 200 ppm [3]

Cc1cc(F)c(OS(C)(=O)=O)cc1NC(=O)N[C@@H](C)c1ncnn1-c1ncccn1 [Example P181, [2-fluoro-4-methyl-5-[[(1S)-1-(2-pyrimidin-2-yl-1,2,4-triazol-3-yl)ethyl]carbamoylamino]phenyl] methanesulfonate]
≥ 80%: percent control (mortality, anti-feedant effect or growth inhibition) at 200 ppm [4] | mortality at 200 ppm [6] | mortality at 12.5 ppm [2]

C[C@H](NC(=O)Nc1cc(C(C)(C)C#N)c(Cl)cc1F)c1ncnn1-c1ncccn1 [Example P202, 1-[4-chloro-5-(1-cyano-1-methyl-ethyl)-2-fluoro-phenyl]-3-[(1S)-1-(2-pyrimidin-2-yl-1,2,4-triazol-3-yl)ethyl]urea]
≥ 80%: percent control (mortality, anti-feedant effect or growth inhibition) at 200 ppm [4] | mortality at 200 ppm [6] | mortality at 12.5 ppm [2] | percent effect (mortality or growth inhibition) at 200 ppm [7] | percent control (mortality, anti-feedant effect or growth inhibition) at 200 ppm [3]

COc1cc(Cl)c(NC(=O)N[C@@H](C)c2ncnn2-c2ncccn2)cc1Cl [Example P204, 1-(2,5-dichloro-4-methoxy-phenyl)-3-[(1S)-1-(2-pyrimidin-2-yl-1,2,4-triazol-3-yl)ethyl]urea]
≥ 80%: mortality at 200 ppm [6]

C[C@H](NC(=O)Nc1cc(C(F)(F)F)c(Br)cc1Br)c1ncnn1-c1ncccn1 [Example P205, 1-[2,4-dibromo-5-(trifluoromethyl)phenyl]-3-[(1S)-1-(2-pyrimidin-2-yl-1,2,4-triazol-3-yl)ethyl]urea]
≥ 80%: percent control (mortality, anti-feedant effect or growth inhibition) at 200 ppm [4] | percent control (mortality or growth inhibition) at 200 ppm [5] | mortality at 200 ppm [6] | mortality at 12.5 ppm [2] | percent effect (mortality or growth inhibition) at 200 ppm [7] | percent control (mortality, anti-feedant effect or growth inhibition) at 200 ppm [3]

C[C@H](NC(=O)Nc1cc2c(cc1Cl)C(=O)N(C)C2=O)c1ncnn1-c1ncccn1 [Example P207, 1-(6-chloro-2-methyl-1,3-dioxo-isoindolin-5-yl)-3-[(1S)-1-(2-pyrimidin-2-yl-1,2,4-triazol-3-yl)ethyl]urea]
≥ 80%: mortality at 200 ppm [6]

C[C@H](NC(=O)Nc1cnc(Br)cc1Br)c1ncnn1-c1ccc(C#N)cn1 [Example P255, 1-[(1S)-1-[2-(5-cyano-2-pyridyl)-1,2,4-triazol-3-yl]ethyl]-3-(4,6-dibromo-3-pyridyl)urea]
≥ 80%: percent control (mortality, anti-feedant effect or growth inhibition) at 200 ppm [4] | percent control (mortality or growth inhibition) at 200 ppm [1] | percent effect (mortality or growth inhibition) at 200 ppm [7] | percent control (mortality, anti-feedant effect or growth inhibition) at 200 ppm [3]

C[C@H](NC(=O)Nc1cc(OC(F)(F)C(F)F)c(Cl)cc1Cl)c1ncnn1-c1cnccn1 [Example P278, 1-[2,4-dichloro-5-(1,1,2,2-tetrafluoroethoxy)phenyl]-3-[(1S)-1-(2-pyrazin-2-yl-1,2,4-triazol-3-yl)ethyl]urea]
≥ 80%: percent control (mortality, anti-feedant effect or growth inhibition) at 200 ppm [4] | percent control (mortality or growth inhibition) at 200 ppm [5] | mortality at 200 ppm [6] | mortality at 12.5 ppm [2] | percent effect (mortality or growth inhibition) at 200 ppm [7] | percent control (mortality, anti-feedant effect or growth inhibition) at 200 ppm [3]

C[C@H](NC(=O)Nc1cc(C#N)c(F)cc1F)c1ncnn1-c1ncccn1 [Example P391, 1-(5-cyano-2,4-difluoro-phenyl)-3-[(1S)-1-(2-pyrimidin-2-yl-1,2,4-triazol-3-yl)ethyl]urea]
≥ 80%: percent control (mortality, anti-feedant effect or growth inhibition) at 200 ppm [4] | percent control (mortality or growth inhibition) at 200 ppm [1] | mortality at 12.5 ppm [2]
